Calls of active or inactive are those of the source.
Columns and labels:
[1] = molecular target: FAD-linked sulfhydryl oxidase ALR (Homo sapiens, UniProt P55789); assay: ALR-catalysed DTT oxidation blockers – biochemical, H2O2 detection, luminescence, cherry-pick, dose response (AID 493248)
[2] = viability of uninfected HEp-2 cells – cell-based, HTS, cytotoxicity control for RSV inhibitor project, dose response (AID 2410); type: functional; details: human respiratory syncytial virus
[3] = Luminescence Cell-Based Dose Retest to Confirm Inhibitors of Cancer Stem Cells. [Related pubchem assays (depositor defined):AID2717, AID2721]; type: functional; details: Homo sapiens
[4] = Trypanosoma cruzi growth suppression in host cells – NIH3T3 host cells, beta-gal luminescence, confirmation (AID 2044); type: functional, cell-based;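 further: intracellular parasites grown in NIH/3T3 mouse fibroblasts as host cells; luminescent beta-galactosidase reporter signal from transgenic T. cruzi replicating inside host cells; inhibitors lower the luminescence signal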
[5] = NIH3T3 cell viability loss – ATP luminescence, mouse fibroblasts, counter-screen, dose response (AID 2010); type: functional, cell-based;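 further: cells exposed to compound for about 90 hours before reading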
[6] = molecular target: T1, Rac GTPase-activating protein 1 (Homo sapiens, UniProt Q9H0H5); assay: blockers of MgcRacGAP-driven Rac1 GTP hydrolysis – biochemical, ADP Hunter fluorescence, primary and confirmatory, confirmation (AID 624330); type: functional
T1 sequence (Q9H0H5 whole entry): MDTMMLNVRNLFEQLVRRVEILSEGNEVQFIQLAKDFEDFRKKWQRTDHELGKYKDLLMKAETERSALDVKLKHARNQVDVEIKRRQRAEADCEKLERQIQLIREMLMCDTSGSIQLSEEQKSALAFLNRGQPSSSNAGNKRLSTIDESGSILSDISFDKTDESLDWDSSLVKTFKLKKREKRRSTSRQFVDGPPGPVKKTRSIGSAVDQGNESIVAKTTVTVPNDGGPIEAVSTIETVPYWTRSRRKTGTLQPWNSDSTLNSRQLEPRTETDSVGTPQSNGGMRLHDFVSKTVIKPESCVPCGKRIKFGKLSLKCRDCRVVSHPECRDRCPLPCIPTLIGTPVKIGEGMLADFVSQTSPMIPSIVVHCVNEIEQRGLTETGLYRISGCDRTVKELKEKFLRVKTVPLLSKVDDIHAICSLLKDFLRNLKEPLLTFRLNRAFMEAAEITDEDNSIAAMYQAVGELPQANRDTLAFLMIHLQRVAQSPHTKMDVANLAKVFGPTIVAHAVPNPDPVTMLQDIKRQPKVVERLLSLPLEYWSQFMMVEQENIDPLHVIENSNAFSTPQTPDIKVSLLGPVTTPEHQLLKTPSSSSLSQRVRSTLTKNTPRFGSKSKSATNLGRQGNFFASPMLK

[7] = molecular target: T2, Heat shock factor protein 1 (Mus musculus, UniProt P38532); assay: decrease of HSF1-responsive luciferase luminescence – cell-based, NIH3T3, dose retest, confirmation (AID 2382); type: functional;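 further: NIH3T3 fibroblasts with HSF1-driven luciferase reporter stressed by proteasome inhibitor MG132; luminescence from HSF1-driven luciferase expression after 8 hours of MG132 stress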
T2 sequence (P38532 whole entry): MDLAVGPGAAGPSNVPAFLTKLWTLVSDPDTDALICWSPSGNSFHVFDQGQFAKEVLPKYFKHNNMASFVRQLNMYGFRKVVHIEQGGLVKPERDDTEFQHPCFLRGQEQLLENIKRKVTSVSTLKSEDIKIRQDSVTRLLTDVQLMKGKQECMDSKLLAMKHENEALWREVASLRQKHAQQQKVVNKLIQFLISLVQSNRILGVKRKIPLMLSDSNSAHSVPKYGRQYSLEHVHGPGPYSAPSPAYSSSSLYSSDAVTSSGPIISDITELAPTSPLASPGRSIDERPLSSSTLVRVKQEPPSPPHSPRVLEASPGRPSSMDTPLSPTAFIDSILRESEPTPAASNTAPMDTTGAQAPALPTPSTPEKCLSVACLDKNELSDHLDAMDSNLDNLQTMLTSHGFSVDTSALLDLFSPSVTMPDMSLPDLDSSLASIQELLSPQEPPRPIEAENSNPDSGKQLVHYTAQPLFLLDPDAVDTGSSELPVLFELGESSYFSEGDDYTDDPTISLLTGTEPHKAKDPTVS

INS1 = assay: INS-1E survival protection against cytokine death – cell-based, luminescence, retest, dose response (AID 449756); type: functional; details: Rattus norvegicus;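 further: cell death triggered by IL-1 beta plus TNF-alpha plus IFN-gamma mixture; protective hits raise ATP signal compared with cytokine alone wells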
Cytochrome P450 2C9 = Cytochrome P450 2C9 (Homo sapiens, UniProt P11712)
Sequence of Cytochrome P450 2C9 (P11712 whole entry): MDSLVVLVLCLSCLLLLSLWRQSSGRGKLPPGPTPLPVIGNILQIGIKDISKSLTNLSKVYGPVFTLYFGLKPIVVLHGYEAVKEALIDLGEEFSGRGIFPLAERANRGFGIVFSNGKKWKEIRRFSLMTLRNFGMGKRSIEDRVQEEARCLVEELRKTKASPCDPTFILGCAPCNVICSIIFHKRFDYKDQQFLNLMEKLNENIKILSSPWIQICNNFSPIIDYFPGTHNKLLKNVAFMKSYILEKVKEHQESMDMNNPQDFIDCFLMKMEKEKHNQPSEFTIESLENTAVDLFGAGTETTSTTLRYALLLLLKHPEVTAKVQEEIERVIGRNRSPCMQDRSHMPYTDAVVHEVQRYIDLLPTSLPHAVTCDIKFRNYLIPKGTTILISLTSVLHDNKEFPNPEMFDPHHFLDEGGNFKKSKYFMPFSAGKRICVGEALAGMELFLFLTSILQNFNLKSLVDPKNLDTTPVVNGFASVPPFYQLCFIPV

[8] = molecular target: Luciferin 4-monooxygenase (Photinus pyralis, UniProt P08659); assay: inhibition of purified Photinus pyralis luciferase – biochemical, luminescence, dose response (AID 1891)
Sequence of Luciferin 4-monooxygenase (P08659 whole entry): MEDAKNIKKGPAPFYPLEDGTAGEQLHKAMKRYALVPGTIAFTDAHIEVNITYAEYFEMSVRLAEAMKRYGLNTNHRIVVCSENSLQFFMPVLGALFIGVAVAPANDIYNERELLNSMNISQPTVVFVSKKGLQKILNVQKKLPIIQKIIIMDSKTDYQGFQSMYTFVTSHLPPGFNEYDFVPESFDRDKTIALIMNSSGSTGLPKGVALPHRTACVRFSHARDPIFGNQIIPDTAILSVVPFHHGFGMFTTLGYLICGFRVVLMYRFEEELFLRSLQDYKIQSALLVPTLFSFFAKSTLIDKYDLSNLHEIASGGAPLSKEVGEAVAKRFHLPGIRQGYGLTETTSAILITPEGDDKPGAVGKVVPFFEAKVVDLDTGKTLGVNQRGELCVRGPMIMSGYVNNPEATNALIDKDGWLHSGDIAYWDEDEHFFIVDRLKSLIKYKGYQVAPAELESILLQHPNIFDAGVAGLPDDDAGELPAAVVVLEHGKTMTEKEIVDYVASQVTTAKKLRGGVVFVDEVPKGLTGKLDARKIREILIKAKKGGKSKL

[9] = Luminescence Cell-Based Dose Confirmation HTS to Identify Inhibitors of Platelet Dense Granule Release. [Related pubchem assays: 1663 (Primary HTS), 1678 (Summary of Project)]; type: functional
H4 = assay: Luminescence Cell-Based Dose Response HTS to Identify Activators of 5'UTR Stem-Loop Driven Prion Protein mRNA Translation in H4 Neuroglioblastoma Cells. [Related pubchem assays: 1829 (Project Summary), 1814 (Primary HTS)]; type: functional; details: Homo sapiens

Sequence of FAD-linked sulfhydryl oxidase ALR (P55789 whole entry): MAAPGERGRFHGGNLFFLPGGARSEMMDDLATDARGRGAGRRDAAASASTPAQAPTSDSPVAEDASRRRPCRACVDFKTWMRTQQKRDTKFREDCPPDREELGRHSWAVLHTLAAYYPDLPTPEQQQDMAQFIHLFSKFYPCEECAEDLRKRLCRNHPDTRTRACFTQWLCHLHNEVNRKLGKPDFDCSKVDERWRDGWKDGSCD

Q: For `CN(C)S(=O)(=O)c1ccc(-c2cn3ccccc3n2)cc1`, which AC50 [1] is on record?
A: The AC50 was 2.05 µM (active).

Q: Which CC50 [2] does the source give for `O=C1C=C(c2ccc(Cl)c(C(F)(F)F)c2)C[C@@H](c2ccc(Cl)cc2)C1` here?
A: Its CC50 is 12.1 µM (active).

Q: What about the AC50 [3] of the same molecule?
A: Its AC50 is 3.41 µM (active).

Q: Which CC50 [2] does the source give for `COc1ccc(OC)c(Nc2nc(N(C)c3ccccc3)nc(N)c2[N+](=O)[O-])c1` here?
A: The CC50 was > 50 µM (active).

Q: What about the EC50 [4] of the same molecule?
A: The EC50 was 0.888 µM (active).

Q: What about the EC50 [5] of the same molecule?
A: Its EC50 is > 30 µM (not active).

Q: With `COc1ccccc1CNCC(=O)N1CC(=O)Nc2ccccc21` as the molecule, how does the IC50 [6] read?
A: Its IC50 is 143 µM (active).

Q: With `COc1cc(/C=C/C(=O)OCc2cn3cc(Cl)ccc3n2)ccc1O` as the molecule, how does the IC50 [6] read?
A: Its IC50 is 45.5 µM (active).

Q: Which IC50 [6] does the source give for `COc1cc(/C=C/C(=O)OCC(=O)Nc2ccc3c(c2)OCCO3)ccc1O` here?
A: Its IC50 is 39.8 µM (active).

Q: Which AC50 [1] does the source give for `COC(=O)c1c(NC(=O)C2CC=CCC2C(=O)O)sc(C(N)=O)c1C` (centres undefined) here?
A: Its AC50 is 3.13 µM (active).

Q: For `CCn1c2ccccc2c2nnc(SCc3ccccc3)nc21`, which CC50 [2] is on record?
A: The CC50 was 34.6 µM (active).

Q: With `O=C(O)c1ccc(NC(=O)c2cn(-c3ccccc3)nc2-c2ccc(Br)cc2)cc1` as the molecule, how does the CC50 [2] read?
A: The CC50 was 21 µM (active).

Q: Which EC50 [7] does the source give for `CCC(Sc1nc(C)cc(C)n1)C(=O)NC1=NN=C(c2ccc(C)cc2)CS1` (centres undefined) here?
A: The EC50 was 12.2 µM (active).

Q: What about the AC50 (INS1) of the same molecule?
A: The AC50 was 4.8 µM (active).

Q: Which IC50 [6] does the source give for `CC(=O)Nc1ccc(OC(=O)Cc2ccc(Cl)cc2)cc1` here?
A: Its IC50 is 23.4 µM (active).

Q: For `Cc1ccc(O)c(CCc2ccc(O)cc2)n1`, which AC50 [1] is on record?
A: Its AC50 is 2.64 µM (active).

Q: For `CCN(CC)S(=O)(=O)c1ccc(NCC2COc3ccccc3O2)c([N+](=O)[O-])c1` (centres undefined), which CC50 [2] is on record?
A: The CC50 was 13 µM (active).

Q: For `CCOc1cc(/C=C(\C#N)C(=O)NCC2CCCO2)ccc1O` (centres undefined), which IC50 [6] is on record?
A: The IC50 was 41.5 µM (active).

Q: With `CCOC(=O)Cc1csc(NC(=O)/C=C/c2ccccc2Cl)n1` as the molecule, how does the CC50 [2] read?
A: Its CC50 is 18.9 µM (active).

Q: Which IC50 [6] does the source give for `CCn1c(=O)c(C(=O)CN(C)Cc2cccc(OC)c2OC)c(N)n(Cc2ccccc2)c1=O` here?
A: Its IC50 is 83.9 µM (active).

Q: With `NNC(=O)c1sc(-c2ccc(Cl)cc2)cc1N` as the molecule, how does the AC50 [1] read?
A: The AC50 was 2.39 µM (active).

Q: Which AC50 [1] does the source give for `O=C(CN1CCN(c2ccccc2)CC1)Nc1ccccc1Cl` here?
A: The AC50 was 6.68 µM (active).

Q: Which AC50 [1] does the source give for `COc1cc(NS(=O)(=O)c2ccc(NC(=O)NC3CCCCC3)cc2)nc(OC)n1` here?
A: Its AC50 is 3.49 µM (active).

Q: With `COc1ccc(NC(S)=NCC2CCN(c3ccc(OC)cc3)C2)cc1` (centres undefined) as the molecule, how does the IC50 [6] read?
A: The IC50 was 39.4 µM (active).

Q: For `Cc1cccc(NC(=O)CC2Nc3cccc4cccc(c34)NC2=O)c1` (centres undefined), which CC50 [2] is on record?
A: The CC50 was > 50 µM (active).

Q: What about the AC50 (Cytochrome P450 2C9) of the same molecule?
A: Its AC50 is 12.6 µM (inconclusive).

Q: For `Oc1c2c(nc3cc(-c4cccc(Cl)c4)nn13)CCCC2`, which CC50 [2] is on record?
A: Its CC50 is 39.3 µM (active).

Q: For `Cc1cccc(-n2c(=O)c3ccccc3n3c(S)nnc23)c1C`, which IC50 [6] is on record?
A: The IC50 was 40.7 µM (active).

Q: With `CC(=O)c1cccc(Oc2cc(NN3CCCCC3)c([N+](=O)[O-])cc2[N+](=O)[O-])c1` as the molecule, how does the AC50 [1] read?
A: Its AC50 is 0.471 µM (active).

Q: With `Cc1csc(/C(=N/OC(=O)c2ccco2)C(N)=O)n1` as the molecule, how does the AC50 [1] read?
A: The AC50 was 0.252 µM (active).

Q: For `COc1cc(/C=N/NC(=O)c2nonc2C)ccc1O`, which EC50 [8] is on record?
A: The EC50 was 23.5 µM (active).

Q: What about the EC50 [9] of the same molecule?
A: Its EC50 is 4.42 µM (active).

Q: And the IC50 [6]?
A: The IC50 was 28.8 µM (active).

Q: For `CCSc1ncc(/C=N/Nc2ccc([N+](=O)[O-])cc2)n1C`, which EC50 (H4) is on record?
A: The EC50 was 0.793 µM (active).

From ChEMBL document CHEMBL1201862, “PubChem BioAssay data set” (2004)
